Read-outs that look alike come from different tables or passages of the source.
Key:
HEK-293 cells = assay: HEK-293 cytotoxicity detection (CellTiter-Glo); assay type: cell-based; details: HEK-293 cells, 72 h incubation, CellTiter-Glo luminescence, IC50 of cell proliferation inhibition, read-out: HEK293
Outline: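 Four-parameter logistic fitting of percent inhibition versus concentration gives IC50. Luminescent ATP read-out (CellTiter-Glo) after 72 h compound treatment of HEK-293 cells, 8 doses in 4-fold steps from a 5 mM 500× DMSO stock, final DMSO 0.2%.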

BTK = molecular target: T1, BTK (Homo sapiens, UniProt Q06187); assay: BTK degradation in TMD-8 cells (HTRF assay); assay type: cell-based; details: 6 h treatment, IC50 (DC50) of BTK degradation
T1 construct: High control=Cell group with added DMSO and without compound, indicating microplate readings without BTK degradation; endogenous in cells; host or cells: TMD-8
Outline: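 BTK remaining after compound treatment was measured by HTRF (337 nm excitation, 665/620 nm emission) in lysates of TMD-8 cells. Cells were exposed for 6 h to eight 6-fold-spaced concentrations in 0.2% DMSO. DC50 values were obtained from a Hill-equation fit (top, bottom, slope) of % inhibition.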

T1 sequence (Q06187 whole entry): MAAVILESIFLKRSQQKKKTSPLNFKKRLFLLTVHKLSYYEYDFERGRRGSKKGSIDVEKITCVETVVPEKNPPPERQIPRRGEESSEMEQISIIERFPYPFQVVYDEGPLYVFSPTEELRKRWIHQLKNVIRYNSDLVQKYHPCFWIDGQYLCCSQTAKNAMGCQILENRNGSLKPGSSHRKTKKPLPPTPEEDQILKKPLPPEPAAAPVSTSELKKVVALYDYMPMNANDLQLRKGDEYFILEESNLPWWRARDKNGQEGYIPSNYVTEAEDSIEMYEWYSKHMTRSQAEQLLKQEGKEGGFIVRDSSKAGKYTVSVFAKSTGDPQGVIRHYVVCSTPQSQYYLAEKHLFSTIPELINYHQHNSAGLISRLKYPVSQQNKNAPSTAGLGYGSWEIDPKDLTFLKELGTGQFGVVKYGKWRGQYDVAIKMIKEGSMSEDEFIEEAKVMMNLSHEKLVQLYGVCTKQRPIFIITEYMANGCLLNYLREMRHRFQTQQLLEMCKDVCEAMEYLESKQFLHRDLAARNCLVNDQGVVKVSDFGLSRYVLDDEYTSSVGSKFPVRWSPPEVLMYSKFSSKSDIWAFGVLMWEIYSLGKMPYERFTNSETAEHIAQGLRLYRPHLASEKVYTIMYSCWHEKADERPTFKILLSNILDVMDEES

| Molecule | IC50 (HEK-293 cells; Homo sapiens) | DC50 (BTK) | IC50 (HEK-293 cells) |
| --- | --- | --- | --- |
| Cc1cc(-c2ncnc3[nH]c4cc(N5CCN(CC6CCN(c7ccc(N8CCC(=O)NC8=O)c(C)c7)CC6)CC5)ccc4c23)ccc1[C@@H](C)NC(=O)c1noc(C(C)(C)C)n1 [Example 22, (R)-5-(tert-butyl)-N-(1-(4-(7-(4-((1-(4-(2,4-dioxotetrahydropyrimidin-1(2H)-yl)-3-methylphenyl)piperidin-4-yl)methyl)piperazin-1-yl)-9H-pyrimido[4,5-b]indol-4-yl)-2-methylphenyl)ethyl)-1,2,4-oxadiazole-3-carboxamide] | > 10000 nM | 0.211 nM |  |
| CC(C)(C)c1noc(C(=O)N[C@@H]2CCc3cc(-c4ncnc5[nH]c6cc(N7CCN(CC8CCN(c9ccc(N%10CCC(=O)NC%10=O)cc9)CC8)CC7)ccc6c45)ccc32)n1 [Example 37, (R)-3-(tert-butyl)-N-(5-(7-(4-((1-(4-(2,4-dioxotetrahydropyrimidin-1(2H)-yl)phenyl)piperidin-4-yl)methyl)piperazin-1-yl)-9H-pyrimido[4,5-b]indol-4-yl)-2,3-dihydro-1H-inden-1-yl)-1,2,4-oxadiazole-5-carboxamide] | > 10000 nM | 57.6 nM |  |
| COc1cc2c(cc1N1CCN([C@H]3C[C@@H](c4ccc(O[C@@H]5CCC(=O)NC5=O)cc4)C3)CC1)[nH]c1ncnc(-c3ccc([C@@H](C)NC(=O)c4nc(C(C)(C)C)no4)c(C)c3)c12 [Example 127, 3-(tert-butyl)-N—((R)-1-(4-(7-(4-((1S,3s)-3-(4-(((R)-2,6-dioxopiperidin-3-yl)oxy)phenyl)cyclobutyl)piperazin-1-yl)-6-methoxy-9H-pyrimido[4,5-b]indol-4-yl)-2-methylphenyl)ethyl)-1,2,4-oxadiazole-5-carboxamide] | > 10000 nM | 2.49 nM |  |
| 5-(tert-butyl)-N—((R)-1-(4-(7-(4-(3-(4-((R)-2,6-dioxopiperidin-3-yl)phenyl)cyclobutyl)piperazin-1-yl)-9H-pyrimido[4,5-b]indol-4-yl)-3-fluoro-2-methylphenyl)ethyl)-1,2,4-oxadiazole-3-carboxamide [Example 32] |  | 9.03 nM | > 10000 nM |
| COc1cc2c(cc1N1CCN([C@H]3C[C@@H](c4ccc(N[C@H]5CCC(=O)NC5=O)cc4)C3)CC1)[nH]c1ncnc(-c3cc(C)c([C@@H](C)NC(=O)c4nc(C5(C)CC5)no4)cc3F)c12 [Example 95, N—((R)-1-(4-(7-(4-((1R,3s)-3-(4-(((S)-2,6-dioxopiperidin-3-yl)amino)phenyl)cyclobutyl)piperazin-1-yl)-6-methoxy-9H-pyrimido[4,5-b]indol-4-yl)-5-fluoro-2-methylphenyl)ethyl)-3-(1-methylcyclopropyl)-1,2,4-oxadiazole-5-carboxamide] | > 10000 nM | 0.49 nM |  |
| COc1cc2c(cc1N1CCN(Cc3ccc4c(c3)C(C)(C)C(=O)N4C3CCC(=O)NC3=O)CC1)[nH]c1ncnc(-c3ccc([C@@H](C)NC(=O)c4nc(C5(C)CC5)no4)c(C)c3)c12 (stereo partly drawn) [Example 74, N-((1R)-1-(4-(7-(4-((1-(2,6-dioxopiperidin-3-yl)-3,3-dimethyl-2-oxoindolin-5-yl)methyl)piperazin-1-yl)-6-methoxy-9H-pyrimido[4,5-b]indol-4-yl)-2-methylphenyl)ethyl)-3-(1-methylcyclopropyl)-1,2,4-oxadiazole-5-carboxamide] | > 10000 nM | 2.04 nM |  |
| Cc1cc(-c2ncnc3[nH]c4cc(C5CCN(C6CC(c7ccc(C8CCC(=O)NC8=O)cc7)C6)CC5)ncc4c23)ccc1[C@@H](C)NC(=O)c1nc(C(C)(C)C)no1 (stereo partly drawn) [Example 41, 3-(tert-butyl)-N-((1R)-1-(4-(7-(1-(3-(4-(2,6-dioxopiperidin-3-yl)phenyl)cyclobutyl)piperidin-4-yl)-9H-pyrido[3′,4′:4,5]pyrrolo[2,3-d]pyrimidin-4-yl)-2-methylphenyl)ethyl)-1,2,4-oxadiazole-5-carboxamide] | 3350 nM | 1.85 nM |  |

From patent US20240366770A1, “DEGRADATION OF BRUTON'S TYROSINE KINASE (BTK) BY CONJUGATION OF BTK INHIBITORS WITH E3 LIGASE LIGAND AND METHODS OF USE” (BeiGene Switzerland GmbH, priority 2021, published 2024)
